Source: patent US10131643B2, “Tizoxanide carbamate and pharmaceutical use thereof” (priority 2013, dated 2018)
Converted amounts (≈) assume the structure as drawn.

Columns and labels:
[1] = oral administration in mice, in words; for Parameters such as Tmax, Cmax, MRT, AUC and relative bioavailability compared with nitazoxanide: calculated as tizoxanide
[2] = test system: PR8 influenza virus; details: PR8 influenza virus in MDCK cells; cited from earlier work
[3] = rat, in vivo, po
[4] = in vivo, cited from earlier work
[5] = test system: Helicobacter pylori; details: 103 strains of Helicobacter pylori; cited from earlier work
[6] = test system: Mycobacterium tuberculosis; details: cited from earlier work

Structure (SMILES)	Parameters such as Tmax, Cmax, MRT, AUC and relative bioavailability compared with nitazoxanide [1]	Oral absorption compared with the control agent nitazoxanide (NTZ) [1]	also measured
O=C(Nc1ncc([N+](=O)[O-])s1)c1ccccc1OC(=O)N1CCCC1 [Compound 4, 2-((5-nitrothiazol-2-yl)carbamoyl)phenyl-pyrrolidine-1-carboxylate]	significantly superior	much better	
CC(=O)Oc1ccccc1C(=O)Nc1ncc([N+](=O)[O-])s1 [NTZ, 2-acetoxy-N-(5-nitro-2-thiazolyl)benzamide]			EC50 [2]: 1 µg/mL (≈ 3.25 µM); EC90 [2]: 7 µg/mL (≈ 22.8 µM); Absolute bioavailability [3]: 7.2%; Detection of the parent drug in plasma, urine, bile and feces ([4]; po): not detectable; Part of the oral dose excreted by feces [4]: about ⅔; Part of the oral dose excreted by urine [4]: about ⅓; 50% minimal inhibitory concentration (MIC50) [5]: 1 µg/mL; 90% minimal inhibitory concentration (MIC90) [5]: 4 µg/mL; Minimal inhibitory concentration (MIC), median value [6]: 16 µg/mL (≈ 52.1 µM)
O=C(Nc1ncc([N+](=O)[O-])s1)c1ccccc1OC(=O)N1CCCCC1 [Compound 3]	significantly superior	much better	
CCOC(=O)C1CCN(C(=O)Oc2ccccc2C(=O)Nc2ncc([N+](=O)[O-])s2)CC1 [Compound 5]	comparable	faster	
CN1CCN(C(=O)Oc2ccccc2C(=O)Nc2ncc([N+](=O)[O-])s2)CC1 [Compound 2, 2-(5-nitrothiazol-2-yl-carbamoyl)phenyl-4-methylpiperazine-1-carboxylate]	significantly superior	faster	
O=C(Nc1ncc([N+](=O)[O-])s1)c1ccccc1O [tizoxanide]			50% minimal inhibitory concentration (MIC50) [5]: 1 µg/mL; 90% minimal inhibitory concentration (MIC90) [5]: 4 µg/mL
CN(C)C(=O)Oc1ccccc1C(=O)Nc1ncc([N+](=O)[O-])s1 [Compound 6]	significantly superior	much better	
O=C(Nc1ncc([N+](=O)[O-])s1)c1ccccc1OC(=O)N1CCOCC1 [Compound 1, 2-(5-nitrothiazol-2-yl-carbamoyl)phenylmorpholine-4-carboxylate]	significantly superior	much better	
